{
  "source": "patent US11352399B2",
  "about": "“Peptide for toll-like receptor (TLR) inhibition and pharmaceutical composition comprising same” (GENESEN CO., LTD., priority 2017, dated 2022)",
  "key": {"TLR4 signaling pathways": {"test_system": "TLR4 signaling pathways", "test": "Western blotting of NF-κB, IRF3 and MAPK in LPS-treated RAW 264.7 cells", "type": "cell-based, mouse", "procedure": "In order to perform Western blotting, a pre-protein extraction solution (M-PER, Thermo Fisher Scientific Inc.) was mixed with a protease and phosphatase inhibitor mixture, and was added to RAW 264.7 cell or hPBMC cell pellets. The pellets were cooled for 10 minutes, and then the lysates were centrifuged at 16000×g for 10 minutes. Then, NE-PER nuclear and cytoplasmic extraction reagents (Thermo Fisher Scientific Inc.) were used to extract cytoplasmic and nuclear proteins, respectively, and a BCA kit (Sigma-Alderich Co. LLC) was used to measure concentrations of the proteins. Subsequently, the same amounts of proteins were developed on SDS-polyacrylamide gels, and electrophoresis was performed using the Mini-PROTEAN Tetra Cell two-dimensional electrophoresis system (Bio-Rad Laboratories, Hercules, Calif., USA). The membrane was immunoblotted with primary antibodies by gentle shaking overnight at a temperature of 4° C. (in which the primary antibodies were antibodies against p-p65, p-JNK, p-IRF3, ERK, p38, and human IL-1β (Cell Signaling Technology Inc., Danvers, Mass., USA); p-ERK, p-p38, Iκ-Bα, JNK, ATF3, COX2, caspase-1, and β-actin (Santa Cruz Biotechnology Inc., Santa Cruz, Calif., USA); iNOS (BD Biosciences); IL-6 and mouse IL-1β (R&D Systems Inc., Minneapolis, Minn., USA); TNF-α (Thermo Fisher Scientific, Inc.); NLRP3 (Adipogen, San Diego, Calif., USA)). Then, after thorough shaking with PBST, the membrane was incubated with anti-mouse/-rabbit HRP-conjugated secondary antibodies (Thermo Fisher Scientific Inc.) for 2 hours; and the proteins were detected with SuperSignal West Pico ECL solution (Thermo Fisher Scientific Inc.) and were visualized with the Fuji LAS-3000 system (Fujifilm, Tokyo, Japan).\nTLR4-mediated responses induced by LPS induce direct interactions between the TIR domain of TIRAP and MyD88, thereby activating MyD88-dependent signaling pathways. In addition, the TLR4-mediated responses induce interactions between the TIR domain of TRAM and TRIF, thereby also activating MyD88-independent signaling pathways. […]"}, "[1]": {"test_system": "mBMDM cells (LPS-induced)", "test": "LPS-induced cytokine and NO secretion in mBMDM cells", "type": "cell-based, mouse", "procedure": "RAW 264.7 cells, THP1 cells, and mBMDM cells were dispensed into 96-well plates to a cell number of 2×10^5 cells/well, or into 24-well plates to a cell number of 5×10^5 cells/well. Incubation was performed overnight. Subsequently, combined treatment with TIP1 and LPS was performed. After 24 hours, secretion levels of IFN-β, IL-6, and TNF-α were measured using a […] (BioLegend), Mouse IL-6 Platinum ELISA (eBiosciences), and a Mouse TNF alpha ELISA Ready SET-Go! kit (eBiosciences). Absorbance was measured at 450 nm using a microplate reader spectrophotometer (Molecular Devices), and the results were analyzed using Softmax Pro 5.3 software (Molecular Devices Inc.).\nRAW 264.7 cells and mBMDM cells were dispensed into 96-well plates (BD Biosciences) to a cell number of 2×10^5 cells/well and incubated overnight. Then, a NO level of the culture supernatant was measured using a NO detection kit (iNtRON Biotechnology Inc., Seongnam, Korea). Absorbance was measured at 550 nm using a microplate reader spectrophotometer (Molecular Devices Inc.), and the results were analyzed using Softmax Pro 5.3 software (Molecular Devices Inc.).\nTNF-α, IL-6, IFN-β levels in the culture supernatant of mBMDM cells were measured using mouse TNF-α, IL-6, IFN-β Ready-SET-Go! ELISA kits according to the method described in Example 2-5, and a NO level in the supernatant was measured according to the method described in Example 2-7. The results are illustrated in FIGS. 6(a)-6(d)."}, "TLR3": {"target": "T1, TLR3 (Mus musculus, UniProt Q99MB1)", "T1 construct": "host or cells: RAW 264.7", "T1 sequence (Q99MB1 26-905)": "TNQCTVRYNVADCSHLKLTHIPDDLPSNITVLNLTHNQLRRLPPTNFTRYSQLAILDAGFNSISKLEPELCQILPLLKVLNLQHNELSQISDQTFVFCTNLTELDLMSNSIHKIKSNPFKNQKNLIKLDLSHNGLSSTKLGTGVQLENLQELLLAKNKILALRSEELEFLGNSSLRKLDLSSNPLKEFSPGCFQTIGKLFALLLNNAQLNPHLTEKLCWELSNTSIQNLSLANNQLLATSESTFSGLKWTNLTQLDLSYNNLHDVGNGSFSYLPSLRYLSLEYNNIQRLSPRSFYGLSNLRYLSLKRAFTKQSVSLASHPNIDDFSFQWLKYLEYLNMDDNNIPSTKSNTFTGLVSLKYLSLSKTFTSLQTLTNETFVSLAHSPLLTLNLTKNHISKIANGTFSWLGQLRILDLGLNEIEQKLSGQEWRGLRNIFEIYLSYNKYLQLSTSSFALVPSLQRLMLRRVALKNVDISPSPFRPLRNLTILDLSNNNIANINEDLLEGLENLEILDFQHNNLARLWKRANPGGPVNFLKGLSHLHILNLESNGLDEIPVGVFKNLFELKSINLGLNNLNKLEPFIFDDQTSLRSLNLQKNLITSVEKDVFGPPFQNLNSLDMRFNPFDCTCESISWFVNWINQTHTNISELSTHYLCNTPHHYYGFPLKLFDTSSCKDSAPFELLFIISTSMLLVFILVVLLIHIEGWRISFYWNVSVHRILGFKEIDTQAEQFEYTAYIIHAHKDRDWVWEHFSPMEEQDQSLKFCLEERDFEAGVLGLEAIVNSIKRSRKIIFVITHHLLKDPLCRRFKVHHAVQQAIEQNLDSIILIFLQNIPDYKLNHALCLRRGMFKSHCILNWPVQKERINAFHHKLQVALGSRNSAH", "test": "TNF-α and IFN-β secretion in RAW 264.7 cells with Poly(I:C)", "type": "cell-based"}, "[2]": {"conditions": "LPS together with TIP1, FIG. 2(a)"}},
  "data": [
    {"sequence": "RQIKIWFQNRRMKWKKSHCRVLLI (TIP1)", "values": [
      {"measurement": "NF-κB activity (Western blotting)", "setting": "TLR4 signaling pathways; [2]", "value": "NF-κB activity was inhibited"},
      {"measurement": "degree of degradation of Iκ-Bα, and activity of IRF3 and ATF3", "setting": "TLR4 signaling pathways; [2]", "value": "decreased"},
      {"measurement": "MAPK activity (phosphorylation of ERK, JNK, p38)", "setting": "TLR4 signaling pathways; LPS together with TIP1, FIG. 2(b)", "value": "MAPK activity was inhibited"},
      {"measurement": "LPS-induced secretion level of IL-6", "setting": "[1]", "value": "decreased"},
      {"measurement": "LPS-induced secretion level of NO", "setting": "[1]", "value": "decreased"},
      {"measurement": "LPS-induced secretion level of TNF-α", "setting": "[1]", "value": "decreased"},
      {"measurement": "secretion level of TNF-α", "setting": "TLR3; Poly(I:C) (TLR3)", "value": "decreased"},
      {"measurement": "decrease of TNF-α secretion (inhibitory effect on TLR3 signaling)", "setting": "TLR3; Poly(I:C), at 50 μM", "value": 92, "unit": "%"},
      {"measurement": "secretion level of IFN-β", "setting": "TLR3; TIP1 together with Poly(I:C), ELISA", "value": "decreased"}
    ]}
  ]
}
